How the values were obtained:
[1] = target: Bromodomain-containing protein 4 (Homo sapiens, UniProt O60885); experiment: Inhibition of BRD4 BD1 (unknown origin) by TR-FRET assay
MCF7 = experiment: Antiproliferative activity against human MCF7 cells assessed as reduction in cell viability incubated for 72 hrs by MTT assay; assay type: functional, cell-based; conditions: MCF7, 72 h
HepG2 [2] = experiment: Inhibition of c-myc expression in human HepG2 cells at 0.625 to 2.5 uM incubated for 24 hrs by Western blot analysis; assay type: functional, cell-based; conditions: dose 0.625-2.5 µM
HepG2 [3] = experiment: Inhibition of colony formation in human HepG2 cells at 0.625 to 10 uM incubated for 8 days with drug replacement every 2 days by crystal violet staining based imaging analysis; assay type: functional, cell-based; conditions: dose 0.625-10 µM, time 8.0 day
HepG2 [4] = experiment: Inhibition of colony formation in human HepG2 cells at 10 uM incubated for 8 days with drug replacement every 2 days by crystal violet staining based imaging analysis; assay type: functional; conditions: HepG2, 192 h, time 8 day
HepG2 [5] = experiment: Antimigratory activity against human HepG2 cells assessed as inhibition of cell migration at 0.625 to 5 uM measured upto 24 hrs by wound healing assay; assay type: functional, cell-based; conditions: dose 0.625-5 µM
HepG2 [6] = experiment: Antimigratory activity against human HepG2 cells assessed as decrease in Snail expression at 0.625 to 2.5 uM incubated 24 hrs by Western blot analysis; assay type: functional, cell-based; conditions: dose 0.625-2.5 µM
HepG2 [7] = experiment: Antimigratory activity against human HepG2 cells assessed as decrease in MMP-9 expression at 0.625 to 2.5 uM incubated 24 hrs by Western blot analysis; assay type: functional, cell-based; conditions: dose 0.625-2.5 µM
HepG2 [8] = experiment: Antimigratory activity against human HepG2 cells assessed as increase in E-cadherin expression at 0.625 to 2.5 uM incubated 24 hrs by Western blot analysis; assay type: functional, cell-based; conditions: dose 0.625-2.5 µM
HepG2 [9] = experiment: Induction of cell cycle arrest in human HepG2 cells assessed as accumulation at G0/G1 phase at 0.625 uM incubated for 24 hrs by flow cytometry (Rvb= 46.5%); assay type: functional
HepG2 [10] = experiment: Induction of cell cycle arrest in human HepG2 cells assessed as accumulation at S phase at 0.625 uM incubated for 24 hrs by flow cytometry (Rvb= 20.1%); assay type: functional
HepG2 [11] = experiment: Induction of cell cycle arrest in human HepG2 cells assessed as accumulation at G2/M phase at 1.25 uM incubated for 24 hrs by flow cytometry (Rvb= 14.05%); assay type: functional
HepG2 [12] = experiment: Induction of cell cycle arrest in human HepG2 cells assessed as accumulation at G0/G1 phase at 2.5 uM incubated for 24 hrs by flow cytometry (Rvb= 46.5%); assay type: functional
HepG2 [13] = experiment: Induction of cell cycle arrest in human HepG2 cells assessed as accumulation at S phase at 2.5 uM incubated for 24 hrs by flow cytometry (Rvb= 20.1%); assay type: functional
HepG2 [14] = experiment: Induction of cell cycle arrest in human HepG2 cells assessed as accumulation at G2/M phase at 2.5 uM incubated for 24 hrs by flow cytometry (Rvb= 14.05%); assay type: functional
HepG2 [15] = experiment: Induction of cell cycle arrest in human HepG2 cells assessed as accumulation at G0/G1 phase at 5 uM incubated for 24 hrs by flow cytometry (Rvb= 46.5%); assay type: functional
HepG2 [16] = experiment: Induction of cell cycle arrest in human HepG2 cells assessed as accumulation at S phase at 5 uM incubated for 24 hrs by flow cytometry (Rvb= 20.1%); assay type: functional
HepG2 [17] = experiment: Induction of cell cycle arrest in human HepG2 cells assessed as accumulation at G2/M phase at 5 uM incubated for 24 hrs by flow cytometry (Rvb= 14.05%); assay type: functional
HepG2 [18] = experiment: Induction of apoptosis in human HepG2 cells assessed as necrotic cells at 0.625 uM incubated for 24 hrs by Annexin-V/PI staining based flow cytometry (Rvb=0.85%); assay type: functional
HepG2 [19] = experiment: Induction of apoptosis in human HepG2 cells assessed as necrotic cells at 1.25 uM incubated for 24 hrs by Annexin-V/PI staining based flow cytometry (Rvb=0.85%); assay type: functional
HepG2 [20] = experiment: Induction of apoptosis in human HepG2 cells assessed as necrotic cells at 2.5 uM incubated for 24 hrs by Annexin-V/PI staining based flow cytometry (Rvb=0.85%); assay type: functional
HepG2 [21] = experiment: Induction of apoptosis in human HepG2 cells assessed as necrotic cells at 5 uM incubated for 24 hrs by Annexin-V/PI staining based flow cytometry (Rvb=0.85%); assay type: functional
HepG2 [22] = experiment: Induction of apoptosis in human HepG2 cells assessed as early apoptotic cells at 0.625 uM incubated for 24 hrs by Annexin-V/PI staining based flow cytometry (Rvb=4.48%); assay type: functional
HepG2 [23] = experiment: Induction of apoptosis in human HepG2 cells assessed as early apoptotic cells at 2.5 uM incubated for 24 hrs by Annexin-V/PI staining based flow cytometry (Rvb=4.48%); assay type: functional
HepG2 [24] = experiment: Induction of apoptosis in human HepG2 cells assessed as early apoptotic cells at 5 uM incubated for 24 hrs by Annexin-V/PI staining based flow cytometry (Rvb=4.48%); assay type: functional
HepG2 [25] = experiment: Induction of apoptosis in human HepG2 cells assessed as late apoptotic cells at 0.625 uM incubated for 24 hrs by Annexin-V/PI staining based flow cytometry (Rvb=0.66%); assay type: functional
HepG2 [26] = experiment: Induction of apoptosis in human HepG2 cells assessed as late apoptotic cells at 1.25 uM incubated for 24 hrs by Annexin-V/PI staining based flow cytometry (Rvb=0.66%); assay type: functional
HepG2 [27] = experiment: Induction of apoptosis in human HepG2 cells assessed as late apoptotic cells at 5 uM incubated for 24 hrs by Annexin-V/PI staining based flow cytometry (Rvb=0.66%); assay type: functional
HepG2 [28] = experiment: Induction of apoptosis in human HepG2 cells assessed as viable cells at 0.625 uM incubated for 24 hrs by Annexin-V/PI staining based flow cytometry (Rvb=94.0%); assay type: functional; conditions: read-out: Activity
HepG2 [29] = experiment: Induction of apoptosis in human HepG2 cells assessed as viable cells at 1.25 uM incubated for 24 hrs by Annexin-V/PI staining based flow cytometry (Rvb=94.0%); assay type: functional; conditions: read-out: Activity
HepG2 [30] = experiment: Induction of apoptosis in human HepG2 cells assessed as viable cells at 2.5 uM incubated for 24 hrs by Annexin-V/PI staining based flow cytometry (Rvb=94.0%); assay type: functional; conditions: read-out: Activity
HepG2 [31] = experiment: Induction of apoptosis in human HepG2 cells assessed as viable cells at 5 uM incubated for 24 hrs by Annexin-V/PI staining based flow cytometry (Rvb=94.0%); assay type: functional; conditions: read-out: Activity
HepG2 [32] = experiment: Induction of apoptosis in human HepG2 cells assessed as increase in p21 level at 0.625 to 2.5 uM incubated for 24 hrs by Western blot analysis; assay type: functional, cell-based; conditions: dose 0.625-2.5 µM
HepG2 [33] = experiment: Induction of apoptosis in human HepG2 cells assessed as increase in cleaved caspase-3 level at 0.625 to 2.5 uM incubated for 24 hrs by Western blot analysis; assay type: functional, cell-based; conditions: dose 0.625-2.5 µM
HepG2 [34] = experiment: Induction of apoptosis in human HepG2 cells assessed as total apoptotic cells at 1.25 uM incubated for 24 hrs by Annexin-V/PI staining based flow cytometry (Rvb=5.14%); assay type: functional
HepG2 [35] = experiment: Induction of apoptosis in human HepG2 cells assessed as total apoptotic cells at 5 uM incubated for 24 hrs by Annexin-V/PI staining based flow cytometry (Rvb=5.14%); assay type: functional

CC(=O)Nc1ccc(Oc2ccc(F)cc2F)c(-c2ccc3[nH]c(=O)c(C)nc3c2)c1
IC50 [1]: 0.0823 µM
IC50 (MCF7): 22.1 µM
inhibition (HepG2 [2]): Dose-Dependent Effect
inhibition (HepG2 [3]): Dose-Dependent Effect
inhibition at 10 µM (HepG2 [4]): 80%
inhibition (HepG2 [5]): Dose-Dependent Effect
Activity (HepG2 [6]): Dose-Dependent Effect
Activity (HepG2 [7]): Dose-Dependent Effect
Activity (HepG2 [8]): Dose-Dependent Effect
Activity (HepG2 [9]): 46.1%
Activity (HepG2 [10]): 20%
Activity (HepG2 [11]): 22.6%
Activity (HepG2 [12]): 53.3%
Activity (HepG2 [13]): 9.5%
Activity (HepG2 [14]): 24.4%
Activity (HepG2 [15]): 54.9%
Activity (HepG2 [16]): 12.4%
Activity (HepG2 [17]): 21%
Activity (HepG2 [18]): 0.8%
Activity (HepG2 [19]): 0.83%
Activity (HepG2 [20]): 0.9%
Activity (HepG2 [21]): 0.84%
Activity (HepG2 [22]): 5.3%
Activity (HepG2 [23]): 7.22%
Activity (HepG2 [24]): 10.4%
Activity (HepG2 [25]): 0.96%
Activity (HepG2 [26]): 1.37%
Activity (HepG2 [27]): 1.26%
viability at 0.625 µM (HepG2 [28]): 92.9%
viability at 1.25 µM (HepG2 [29]): 91.5%
viability at 2.5 µM (HepG2 [30]): 90.6%
viability at 5 µM (HepG2 [31]): 87.5%
Activity (HepG2 [32]): Dose-Dependent Effect
Activity (HepG2 [33]): Dose-Dependent Effect
Activity (HepG2 [34]): 7.66%
Activity (HepG2 [35]): 11.66%
